Test: in vivo
Conditions: sheep, sc
Method: Sheep (approximately 100 kg) were housed at SUNY Stony Brook Health Sciences Center. Animals were anesthetized with acepromazine/thiopental sodium. A suspense of diketopiperazine microparticle/sCT (10.04 mg/mL in 0.9% saline) was instilled in each lung of each sheep. A solution of sCT (10 mg/mL in 0.9% saline) was administered by subcutaneous injection to control animals. An intravenous catheter was placed in the cephalic vein of each anesthetized animal for blood sampling.
The following dosing solutions were prepared on the day of the experiment. The volume of the dose delivered was calculated based on the actual weight of the animal as described below.
Blood samples were drawn at the following time points: −5, 0 (predose), 1, 3, 5, 10, 15, 30, 45, 60, 90 minutes, 2, 4, and 6 hours. […]
Plasma sCT concentration was determined using radioimmunoassay (Research and Diagnostic Antibodies, Berkeley, Calif., catalog #K-1235).
The pharmacokinetics of sCT in sheep was determined after lung instillation of a formulation of sCT in diketopiperazine microparticle (2.47% by weight sCT) at a sCT dose of 100 μg/kg. […]
The truncated AUC (0 to 6 hours) was calculated for each animal using the trapezoidal rule. The bioavailability (F %) for each animal was calculated from the ration of the AUCs for the pulmonary and subcutaneous administrations.

Tmax: 2 h | AUC(0-t) (100 ug/kg): 38.8 ng·h/mL
SMILES: CC(C)C[C@H](NC(=O)[C@H](CCCCN)NC(=O)CNC(=O)[C@H](CC(C)C)NC(=O)[C@@H](NC(=O)[C@@H]1CSSC[C@H](N)C(=O)N[C@@H](CO)C(=O)N[C@@H](CC(N)=O)C(=O)N[C@@H](CC(C)C)C(=O)N[C@@H](CO)C(=O)N[C@@H]([C@@H](C)O)C(=O)N1)C(C)C)C(=O)N[C@@H](CO)C(=O)N[C@@H](CCC(N)=O)C(=O)N[C@@H](CCC(=O)O)C(=O)N[C@@H](CC(C)C)C(=O)N[C@@H](Cc1c[nH]cn1)C(=O)N[C@@H](CCCCN)C(=O)N[C@@H](CC(C)C)C(=O)N[C@@H](CCC(N)=O)C(=O)N[C@H](C(=O)N[C@@H](Cc1ccc(O)cc1)C(=O)N1CCC[C@H]1C(=O)N[C@@H](CCCNC(=N)N)C(=O)N[C@H](C(=O)N[C@@H](CC(N)=O)C(=O)N[C@H](C(=O)NCC(=O)N[C@@H](CO)C(=O)NCC(=O)N[C@H](C(=O)N1CCC[C@H]1C(N)=O)[C@@H](C)O)[C@@H](C)O)[C@@H](C)O)[C@@H](C)O [sCT, salmon calcitonin]

Reference: patent publication US8394414B2, “Method for drug delivery to the pulmonary system” (MannKind Corporation, priority 1995, dated 2013)
